Where two headings read alike, the source gives them in different places.
How the values were obtained:
[1] = test system: human breast cancer cells (surgical sample); test: Anticancer agent sensitivity, FDA spectrophotofluorimetry of extracted dye; details: 24 h agent contact; for FDA spectrophotofluorimetry fluorescence units: excitation 490 nm, detection 520 nm; for Effect/control (FDA spectrophotofluorimetry): ratio to control = 1.00
Method: (§1) The embedded culture was carried out as follows: 1 volume of 10-fold concentrated Ham's F12 culture solution (sodium bicarbonate-free) and 1 volume of a reconstituting buffer solution (50 mM NaOH solution containing 260 mM sodium bicarbonate and 200 mM-HEPES) were added to 8 volumes of Cellmatrix Type I-A (0.3% acid-soluble Type-I collagen solution: product of Nitta Gelatin Inc.); the breast cancer cells and the like as obtained in the above-mentioned preliminary culture and collection steps were added and well mixed into the resultant mixture; the final concentration was adjusted to 5×10^4 cells/ml; and the resultant mixture was kept in ice.
(§2) Next, this collagen mixture solution was placed onto a 24-well multiplate at 30 μl/well using a micropipette and gelated to prepare globular collagen gels (for details see Example 1G).
(§3) A 0.5-ml portion of the culture solution containing an anticancer agent was superposed on the globular collagen gel in which the cancer cells were embedded and which was obtained in the above-mentioned embedding step, and the cancer cells were allowed to be in contacted with the anticancer agent by keeping them in a 5% carbon dioxide incubator at 37° C. for 24 hours. The following six anticancer agents were used: MMC (mitomycin C), CDDP (cisplatin), VDS (vindesine), VP-16, 5-FU (5fluorouracil) and ADM (adriamycin).
(§4) Then, the culture solution containing the anticancer agent was removed by suction, 0.5 ml of a culture solution free from an anticancer agent was instead added, the resultant mixture was shaken in a 5% carbon dioxide incubator, thus washing the globular collagen gel. This procedure was repeated at least every 10 minutes for a total of 3 times, whereby the anticancer agent was removed from the globular collagen gel.
(§5) After the above-mentioned agent contact step, 0.5 ml of a culture solution was added, and the culture was effected at 37° C. in a 5% carbon dioxide incubator for 7-14 days. The culture solution was exchanged every 1-2 days. The proliferation culture solution as used was a culture solution containing a DF culture solution+10% FBS+5μg/ml insulin (product of Sigma Chemical Co.)+10 ng/ml EGF (EGF: epidermal growth factor, product of Becton Dickinson Labware)+20 ng/ml hydrocortisone (product of Sigma Chemical Co.) (see Example 1H).
(§6) The culture container was then transferred to a cooled dark box. The culture solution was exchanged with a culture solution, to which an FDA-staining agent (FDA concentration: 2-10 μg/ml) which reacts due to esterase activity in live cells had been added, and was shaken for one hour in a refrigerator (10° C.), thus reacting the FDA with the cells.
(§7) The cultured cell sample as subjected to the fluorescent stain was washed for one hour with a fresh cooled culture solution, thus removing the extracellular fluorescent reagent. The culture solution as used for the washing was a DME culture solution. This solution was further exchanged with a culture solution of 37° C., shaking was performed for one hour in an incubator at 37° C., and the FDA which had reacted in the cells was extracted into the solution. The culture solution was separated off and measured using a fluorospectrophotometer, with an excitatory wavelength of 490 nm and a detection wavelength of 520 nm.

[2] = test system: human breast cancer cells (surgical sample); test: Anticancer agent sensitivity, globular collagen gel-embedded culture, Alamar Blue (AB) absorbance; details: 24 h agent contact, 7-14 days culture; for AlamarBlue absorbance: 570 nm, reference 600 nm; for Effect/control (AlamarBlue absorbance): ratio to control = 1.00
Method: (§8) The capsule, fat, etc. were removed from the tissue containing the breast cancer using scissors and forceps under aseptic conditions, and then sliced with a razor.
(§9) The live tumor cells as obtained by the above-mentioned preliminary culture and collection steps were embedded into a globular collagen gel and cultured.
as §1, §3, §4
(§10) After the above-mentioned agent contact step, 0.5 ml of a culture solution was added, and the culture was effected at 37° C. in a 5% carbon dioxide incubator for 7-14 days. The culture solution was exchanged every 1-2 days.
(§11) The viability of the cells in the sample as obtained by the culture was measured.
(§12) For the measurement, an AB coloring agent was used to cause a color reaction by the reductive activity of the cells.
(§13) The AB coloring agent was added in an amount of 1/50-1/10 relative to the culture solution, and the reaction was conducted for 6 hours in a carbon dioxide incubator.
(§14) After the reaction, the culture solution was separated off, and the absorbance of the culture solution was measured using a spectrophotometer. The measurement of the absorbance was performed at 570 nm with a reference wavelength of 600 nm.

[3] = test system: human breast cancer cells (surgical sample); details: primary breast cancer cells, 24 h
Method: as §1, §2, §3, §4, §5, §6, §7

[4] = test system: human breast cancer cells (surgical sample); details: primary breast cancer cells, 24 h; remark: listed apart in the source
Method: (§15) Using a surgical sample as obtained from a human breast cancer patient as the starting material, it was treated according to the order as shown in the flow sheet.
as §1
(§16) A 0.5-ml portion of the culture solution containing an anticancer agent was superposed on the globular collagen gel in which the cancer cells were embedded and which was obtained in the above-mentioned embedding step, and the cancer cells were allowed to be in contacted with the anticancer agent by keeping them in a 5% carbon dioxide incubator at 37° C. for 24 hours.
as §4, §10, §12, §13
(§17) The same culture solution was also measured using a fluorospectrophotometer, with an excitatory wavelength of 560 nm and a detection wavelength of 590 nm.

[5] = test system: human breast cancer cells (surgical sample); details: primary breast cancer cells, 24 h; remark: listed apart in the source
Method: as §8, §9, §1, §3, §4, §10, §11, §12, §13, §14

[6] = test system: human breast cancer cells (surgical sample); test: Anticancer agent sensitivity, FDA stain, fluorescence intensity on image; details: 24 h agent contact; for FDA image fluorescence units: fluorescence intensity on image; for Effect/control (FDA image fluorescence): ratio to control = 1.00
Method: as §1, §2, §3, §4, §5
(§18) The culture solution was exchanged with a culture solution, to which an FDA-staining agent (FDA concentration: 2-10 μg/ml) which reacts due to esterase activity in live cells had been added, and was shaken for one hour in a refrigerator (10° C.), thus reacting the FDA with the cells.
(§19) The fluorescently colored cells were quantified by image analysis. The image for the image analysis was created using, an inverted fluorescent microscope, a sample holder cooling apparatus (in-house product), an excitatory light irradiation control apparatus, a sample holder driving apparatus and a high-sensitivity cooled CCD camera. The volume was measured on the basis of this image using an image analyzer according to a conventional method. The intensity of the excitatory light was 1×10^3 lux.sec on the sample holder.
(§20) In addition to the conventional known volume measurement by image analysis, the viability of the cells was also measured by quantifying the fluorescence intensity on the image.

[7] = test system: human breast cancer cells (surgical sample); test: Anticancer agent sensitivity, globular collagen gel-embedded culture, Alamar Blue fluorescence; details: 24 h agent contact; for AlamarBlue fluorescence intensity: excitation 560 nm, detection 590 nm; for Effect/control (AlamarBlue fluorescence): ratio to control = 1.00
Method: as §15, §1, §16, §4, §10, §12, §13, §17

[8] = test system: human breast cancer cells (surgical sample); details: primary breast cancer cells, 24 h; remark: listed apart in the source
Method: as §15, §1, §3, §4, §10
(§21) The culture solution for the washing was free from sodium bicarbonate and cooled to 4° C. before use.
as §6, §19

[9] = test system: human breast cancer cells (surgical sample); test: Anticancer agent sensitivity, FDA stain, volume by image analysis; details: 24 h agent contact; for FDA volume: image analysis; for Effect/control (FDA volume): ratio to control = 1.00
Method: as §15, §1, §3, §4, §10, §21, §6, §19

[10] = test system: breast cancer cells (surgical sample from a human cancer patient); test: Anticancer agent sensitivity, MTT assay method, formazane absorbance; assay type: cell-based; details: for Effect/control (formazane absorbance): control = 1.00
Method: A test was conducted in the same way as in Example 1, but an MTT reagent was substituted for the AB coloring agent in the colorimetric analysis step. A surgical sample (breast cancer) as obtained from a human cancer patient was used as the starting material, and the test was carried out according to the same procedures and methods as in Example 1, except for the procedures subsequent to the colorimetric analysis step. The formazane as deposited in live cells was extracted by dissolving the collagen gel with collagenase in the culture container and then adding a formazane extractant, and the absorbance of the resultant extract was measured, when the deposited fine crystal of formazane was held in the collagen gel, such that results were obtained with good accuracy.

[11] = test system: breast cancer cells (surgical sample from a human cancer patient); test: Anticancer agent sensitivity, NR extraction method, absorbance; assay type: cell-based; details: for Effect/control (Neutral Red absorbance): control = 1.00
Method: A test was conducted in the same way as in Example 1, but the image analysis of live cells as stained with the NR was not carried out, and the NR was instead extracted from the live cells, thus measuring the absorbance. A surgical sample (breast cancer) as obtained from a human cancer patient was used as the starting material, and the test was carried out according to the same procedures and methods as in Example 1, except for the procedures of the formalin-fixation, the drying and the image analysis in the pigment stain analysis step. The NR as incorporated into live cells was extracted by dissolving the collagen gel with collagenase in the culture container and then adding an NR extractant, and the absorbance of the resultant extract was measured.

[12] = test system: human breast cancer cells (surgical sample); details: primary breast cancer cells, 24 h; remark: listed apart in the source
Method: as §1, §2, §3, §4, §5, §18, §19, §20

[13] = test system: human breast cancer cells (surgical sample); details: primary breast cancer cells, 24 h; remark: listed apart in the source
Method: as §15, §1, §2, §3, §4, §5
(§22) The culture solution for the washing was a DME culture solution.
(§23) The culture solution was exchanged with a culture solution to which an NR-staining agent had been added (NR concentration: 25-50 μg/ml), and shaking was effected for 2 hours in a carbon dioxide incubator, thus incorporating the NR into the cells.
(§24) After the stain, the culture solution containing the NR was exchanged with PBS (Phosphate Buffered Saline), and the sample was allowed to stand stationary in a room for 10 minutes, thus removing the NR remaining outside of the cells.
(§25) Next, the PBS was exchanged with neutral 10% formalin, and the sample was allowed to stand stationary in a room for 40 minutes, thus fixing the cells and the NR as incorporated into the cells.
(§26) The globular collagen gel to which the cells had been fixed was immersed in distilled water for 10 minutes, thus removing the salts. When the globular collagen gel which had been immersed in the distilled water was air-dried at room temperature, whereby a flat dried product was formed.
(§27) At this time, the cultured cells were fixed in the dried collagen gel while containing the NR.
(§28) The volume of the fixed cells was measured using an image analyzer in the same manner as mentioned above.

[14] = test system: human breast cancer cells (surgical sample); test: Anticancer agent sensitivity, Neutral Red stain, volume by image analysis; details: 24 h agent contact; for Neutral Red volume: image analysis of fixed, dried gel; for Effect/control (Neutral Red volume): ratio to control = 1.00
Method: as §15, §1, §2, §3, §4, §5, §22, §23, §24, §25, §26, §27, §28

[15] = test system: fibroblasts in human lung cancer and human breast cancer samples; test: Fibroblast proliferation in preliminary culture, microscopic observation; assay type: cell-based; details: 10 μg/ml dextran sulfate in serum culture solution, 7 days
Method: Thus, an investigation was made with regard to a serum-free culture solution (DF culture solution+5 μg/ml insulin+10 ng/ml EGF+8 ng/ml sodium selenite+10 μg/ml transferrin+5 mg/ml BSA) (BSA: bovine serum albumin) and a serum culture solution containing dextran sulfate (DF culture solution+10% FBS+insulin+EGF+hydrocortisone 10 μg/ml dextran sulfate).
The experimental materials used were the 14 cases of human lung cancer and 12 cases of human breast cancer which had adhered to the bottom of the culture dishes in Example 1A above as controls, and the above-mentioned culture solutions (the serum-free culture solution and the dextran sulfate-containing serum culture solution) were used to culture cells for 7 days.

[16] = test system: rabbit-oriented vascular endothelial cells; test: Proliferation shape of vascular endothelial cells around globular collagen gel containing TGF-β; assay type: cell-based
Source text: The procedure of Example 23 was repealed, but TGF-β (a transformation growth factor) was substituted for the cells of the group A, and rabbit-oriented vascular endothelial cells for the cells of the group B, and the following modifications were made. […] In FIG. 7, the transformation growth factor 70 is contained in the globular collagen gel 20a. A collagen gel 80a in which the rabbit-oriented vascular endothelial cells 50d were embedded was placed in the layered form into the inside of the multiplate 10, such that the globular collagen gel 20a was covered with the collagen gel 80a. The test was carried out in the same way as in Example 22 except for the components as contained in each collagen gel and for the placement of the gels. In addition, the collagen gel 80a was evaluated by microscopy.
As a result, different proliferation shapes of the vascular endothelial cells were observed depending on the distance from the surface of the globular collagen gel 20a.

[17] = 5-FU concentration 0.1 (Cmax = 1)
[18] = 5-FU concentration 0.2 (Cmax = 1)
[19] = 5-FU concentration 0.4 (Cmax = 1)
[20] = 5-FU concentration 0.6 (Cmax = 1)
[21] = 5-FU concentration 0.8 (Cmax = 1)
[22] = 5-FU concentration 1.0 (Cmax = 1)

Molecule: O=c1[nH]cc(F)c(=O)[nH]1 [5-FU, 5fluorouracil]
- FDA spectrophotofluorimetry fluorescence units [1]: 4.68 10^1
- AlamarBlue absorbance [2]: 0.69
- Effect/control (FDA spectrophotofluorimetry) [3]: 0.63
- Effect/control (AlamarBlue fluorescence) [4]: 0.71
- Effect/control (AlamarBlue absorbance) [5]: 0.73
- FDA image fluorescence units [6]: 4.77 10^1
- AlamarBlue fluorescence intensity [7]: 5.07 10^2
- Effect/control (FDA volume) [8]: 0.65
- FDA volume [9]: 9.89 10^7 μm^3
- Formazane absorbance [10, 17]: 1.036
- Effect/control (formazane absorbance) [10, 17]: 0.88
- Formazane absorbance [10, 18]: 0.774
- Effect/control (formazane absorbance) [10, 18]: 0.66
- Formazane absorbance [10, 19]: 0.599
- Effect/control (formazane absorbance) [10, 19]: 0.51
- Formazane absorbance [10, 20]: 0.515
- Effect/control (formazane absorbance) [10, 20]: 0.44
- Formazane absorbance [10, 21]: 0.450
- Effect/control (formazane absorbance) [10, 21]: 0.38
- Formazane absorbance [10, 22]: 0.429
- Effect/control (formazane absorbance) [10, 22]: 0.37
- Neutral Red absorbance [11, 17]: 0.307
- Effect/control (Neutral Red absorbance) [11, 17]: 0.88
- Neutral Red absorbance [11, 18]: 0.206
- Effect/control (Neutral Red absorbance) [11, 18]: 0.59
- Neutral Red absorbance [11, 19]: 0.123
- Effect/control (Neutral Red absorbance) [11, 19]: 0.35
- Neutral Red absorbance [11, 20]: 0.100
- Effect/control (Neutral Red absorbance) [11, 20]: 0.29
- Neutral Red absorbance [11, 21]: 0.079
- Effect/control (Neutral Red absorbance) [11, 21]: 0.23
- Neutral Red absorbance [11, 22]: 0.072
- Effect/control (Neutral Red absorbance) [11, 22]: 0.21
- Effect/control (FDA image fluorescence) [12]: 0.62
- Effect/control (Neutral Red volume) [13]: 0.64
- Neutral Red volume [14]: 10.76 10^7 μm^3

Molecule: dextran sulfate
- proliferation of the fibroblasts [15]: partially suppressed

Molecule: COc1cc(C2c3cc4c(cc3C(OC3OC5COC(C)OC5C(O)C3O)C3COC(=O)C23)OCO4)cc(OC)c1O (stereo not shown) [VP-16]
- FDA spectrophotofluorimetry fluorescence units [1]: 6.90 10^1
- Effect/control (FDA spectrophotofluorimetry) [1]: 0.93
- AlamarBlue absorbance [2]: 0,87
- Effect/control (AlamarBlue absorbance) [2]: 0.91
- FDA image fluorescence units [6]: 7.23 10^1
- Effect/control (FDA image fluorescence) [6]: 0.94
- AlamarBlue fluorescence intensity [7]: 6.64 10^2
- Effect/control (AlamarBlue fluorescence) [7]: 0.94
- Effect/control (FDA volume) [9]: 0.93
- Neutral Red volume [14]: 15.54 10^7 μm^3
- Effect/control (Neutral Red volume) [14]: 0.92

Molecule: COc1cccc2c1C(=O)c1c(O)c3c(c(O)c1C2=O)C[C@@](O)(C(=O)CO)C[C@@H]3O[C@H]1C[C@H](N)[C@H](O)[C@H](C)O1 [ADM, adriamycin]
- FDA spectrophotofluorimetry fluorescence units [1]: 5.33 10^1
- Effect/control (FDA spectrophotofluorimetry) [1]: 0.72
- AlamarBlue absorbance [2]: 0.65
- Effect/control (AlamarBlue absorbance) [2]: 0.68
- FDA image fluorescence units [6]: 5.35 10^1
- Effect/control (FDA image fluorescence) [6]: 0.70
- AlamarBlue fluorescence intensity [7]: 4.81 10^2
- Effect/control (AlamarBlue fluorescence) [7]: 0.68
- FDA volume [9]: 10.93 10^7 μm^3
- Effect/control (FDA volume) [9]: 0.72
- Neutral Red volume [14]: 12.26 10^7 μm^3
- Effect/control (Neutral Red volume) [14]: 0.73

Molecule: TGF-β
- Proliferation state of vascular endothelial cells ([16]; 0 mm from surface of gel 20a): lump
- Proliferation state of vascular endothelial cells ([16]; 1 mm from surface of gel 20a): tree
- Proliferation state of vascular endothelial cells ([16]; 3 mm from surface of gel 20a): lump
- Proliferation state of vascular endothelial cells ([16]; 4 mm from surface of gel 20a): lump

Molecule: [NH2][Pt]([NH2])([Cl])[Cl] [CDDP, cisplatin]
- FDA spectrophotofluorimetry fluorescence units [1]: 3.50 10^1
- Effect/control (FDA spectrophotofluorimetry) [1]: 0.47
- AlamarBlue absorbance [2]: 0.40
- Effect/control (AlamarBlue absorbance) [2]: 0.42
- FDA image fluorescence units [6]: 3.43 10^1
- Effect/control (FDA image fluorescence) [6]: 0.45
- AlamarBlue fluorescence intensity [7]: 2.66 10^2
- Effect/control (AlamarBlue fluorescence) [7]: 0.38
- FDA volume [9]: 5.68 10^7 μm^3
- Effect/control (FDA volume) [9]: 0.37
- Neutral Red volume [14]: 6.25 10^7 μm^3
- Effect/control (Neutral Red volume) [14]: 0.37

Molecule: CO[C@@]12[C@H](COC(N)=O)C3=C(C(=O)C(C)=C(N)C3=O)N1C[C@@H]1N[C@@H]12 [MMC, mitomycin C]
- FDA spectrophotofluorimetry fluorescence units [1]: 3.37 10^1
- AlamarBlue absorbance [2]: 0.40
- Effect/control (FDA spectrophotofluorimetry) [3]: 0.46
- Effect/control (AlamarBlue fluorescence) [4]: 0.46
- Effect/control (AlamarBlue absorbance) [5]: 0.42
- FDA image fluorescence units [6]: 3.26 10^1
- AlamarBlue fluorescence intensity [7]: 3.24 10^2
- Effect/control (FDA volume) [8]: 0.33
- FDA volume [9]: 5.07 10^7 μm^3
- Effect/control (FDA image fluorescence) [12]: 0.42
- Effect/control (Neutral Red volume) [13]: 0.31
- Neutral Red volume [14]: 5.19 10^7 μm^3

Molecule: CC[C@]1(O)C[C@@H]2CN(CCc3c([nH]c4ccccc34)[C@@](C(=O)OC)(c3cc4c(cc3OC)N(C)[C@H]3[C@@](O)(C(N)=O)[C@H](O)[C@]5(CC)C=CCN6CC[C@]43[C@@H]65)C2)C1 [VDS, vindesine]
- FDA spectrophotofluorimetry fluorescence units [1]: 4.52 10^1
- AlamarBlue absorbance [2]: 0.69
- Effect/control (FDA spectrophotofluorimetry) [3]: 0.61
- Effect/control (AlamarBlue fluorescence) [4]: 0.72
- Effect/control (AlamarBlue absorbance) [5]: 0.73
- FDA image fluorescence units [6]: 4.74 10^1
- AlamarBlue fluorescence intensity [7]: 5.13 10^2
- Effect/control (FDA volume) [8]: 0.61
- FDA volume [9]: 9.25 10^7 μm^3
- Effect/control (FDA image fluorescence) [12]: 0.62
- Effect/control (Neutral Red volume) [13]: 0.60
- Neutral Red volume [14]: 10.10 10^7 μm^3

Reference: patent US5712161A, “Method for culturing animal cells in collagen drops on a support” (Nitta Gelatin Inc., priority 1993, dated 1998)
